A short description of this data set: Stability studies: storage under different relative humidity conditions, checked by XRPD pattern. The data set is classed as physicochemical. The following applies: solid stored at 25° C., 1 week each at 40%, 60%, 80%, 30%, 0% and 40% RH. As to the method:
The XRPD analyses were carried out on a PANanalytical X'pert Pro X-ray powder diffractometer using Cu Kα radiation. The instrument was equipped with a X'Celerator detector. A theta-two theta continuous scan from 2.5 degrees 2 theta to 40 degrees 2 theta was used. Each sample was prepared for analysis by placing it in a quartz sample holder. The XPRD patterns are reported in terms of degrees 2 theta (°2θ, accuracy ±0.1°), diffraction peak intensity (height, [cts]), full width at half maximum (FWHM, [°2θ]), interatomic spacing in angstroms (d-spacing, [Å]), and relative intensities (%). The relative intensity is recorded as the ratio of the peak intensity to that of the most intense peak.
In order to check its thermodynamic stability, CHF 4226 crystal form D was stored at room temperature under different relative humidity (RH) conditions: • 40% RH. and 25° C. for 1 week • 60% RH. and 25° C. for 1 week • 80% RH and 25° C. for 1 week • 60% RH and 25° C. for 1 week • 40% RH and 25° C. for 1 week • 30% RH and 25° C. for 1 week • 0% RH. and 25° C. for 1 week • 40% RH and 25° C. for 1 week The thermodynamic stability of all the samples was checked by recording their XPRD pattern.

With `COc1ccc(C[C@@H](C)NC[C@H](O)c2ccc(O)c3[nH]c(=O)ccc23)cc1.Cl` [CHF 4226 crystal form D, 8-hydroxy-5-[(1R)-1-hydroxy-2-[[(1R)-2-(4-methoxyphenyl)-1-methylethyl]amino]ethyl]-2(1H)-quinolinone monohydrochloride], the “thermodynamic stability (XPRD pattern after storage)” value is “stable features under all stability screening conditions”.

The values are drawn from patent US20090280068A1, “POLYMORPH OF 8-HYDROXY-5-[(1R)-1-HYDROXY-2-[[(1R)-2-(4-METHOXYPHENYL)-1-METHYLETHYL]AMINO]ETHYL]-2(1H)-QUINOLINONE MONOHYDROCHLORIDE” (Chiesi Farmaceutici S.p.A., priority 2008, published 2009).
